According to patent US20110218190A1, “THERAPEUTIC USES OF AMPA RECEPTOR MODULATORS FOR TREATMENT OF MOTOR DYSFUNCTION” (THE REGENTS OF THE UNIVERSITY OF CALIFORNIA, priority 2008, published 2011):

Columns and labels:
[1] = test system: hypoglossal (XII) nerve discharge, neonatal rat medullary slice preparation; test: Integrated hypoglossal (XII) nerve recordings in the in vitro neonatal rat medullary slice preparation; conditions: for ∫XII nerve discharge amplitude: longer-term (>2 hours) bath application; for long-lasting potentiation of ∫XII nerve amplitude: 1-12 hours after
Protocol: (§1) Experiments were performed on medullary slice preparations from 0-4 day-old neonatal rats that retain functional respiratory networks. Details of the preparation have been previously described. See Funk et al. (1993) J Neurophysiol 70:1497-1515. Briefly, neonatal rats were anesthetized with isoflurane, decerebrated, and the neuraxis isolated by dissection in artificial cerebrospinal fluid (ACSF) [(in mM) 128 NaCl, 3.0 KCl, 1.5 CaCl2, 1.0 mgSO4, 21 NaHCO3, 0.5 Na2HPO4, and 30 D-glucose] equilibrated with 95% 02-5% CO2 at 27-28° C. The neuraxis was sectioned with a vibratome in the transverse plane starting from the rostral medulla to within 150 μm nucleus ambiguous (Smith, J. C. et al., (1991) Science 254(5032):726-729. A single, 700 μm thick transverse slice was then cut, transferred to a 1.5 ml recording chamber and held in place by stainless steel harp. The slice was continuously superfused (≧3 ml/min) by ACSF with extracellular K^+ concentration raised to 9 mM to maintain rhythmic output.
Respiratory motor output was recorded from cut ends of XII nerve roots rectified, filtered and integrated. Peak amplitude was obtained from signals of XII nerve discharge. The activity in individual XII motoneurons was measured via whole-cell voltage-clamp techniques.
Cyclothiazide, CX546, and aniracetam were introduced by bath application to determine the effects of cyclothiazide, CX546, and aniracetam on respiratory activity. Stable respiratory activity was recorded for at least 30 minutes preceding drug application. After removal of the drug, recordings continued for over 12 hours.

[2] = test system: genioglossus (GG) muscle activity in anesthetized freely breathing rats; test: Genioglossus EMG and respiratory rate in anesthetized freely breathing rats; assay type: in vivo, Sprague-Dawley rats
Protocol: Anesthetized freely breathing rats provide a live animal model for determining effects of AMPA receptor modulators on genioglossus (GG) muscle activity.
Adult Sprague-Dawley rats (˜300 g) were anaesthetized with ketamine (100 mg kg^−1) and xylazine (10 mg kg^−1) injected intraperitoneally. 1-1.5 vol % isoflurane in O2 was inhaled during the experimental stage to provide for stable recordings and continued anesthesia. To measure GG electromyographic activity (EMG), stainless steel wire electrodes were sutured into the muscle. The raw GG EMG signal was rectified filtered and integrated.
Respiratory frequency and tidal volume were measured via pressure transducer attached to the rostral end of a polyethylene cannula that was inserted into the trachea of the anesthetized rat. The animal was freely breathing without the use of any ventilator or other method of respiratory support. These methods were taken in part from those reported in Tan, W., et al. (2008) Nat. Neurosci. 11(5):538-40 and Janczewski, W. A. and Feldman, J. L. (2006) J. Physiol. 570(Pt 2):407-20, incorporated by reference in their entirety.

[3] = test system: snoring; test: Treatment of a patient having snoring; assay type: in vivo; conditions: about 0.1 to 100 mg/kg body weight
Protocol: A patient is diagnosed as having snoring. This diagnosis is confirmed by the presence of snoring sounds made by the patient during sleep or conditions associated with snoring.
(§2) The patient is administered a pharmaceutical formulation of an AMPA receptor modulator. The AMPA receptor modulator is administered to the patient intravenously or orally at a dosage of about 0.1 to 100 mg AMPA receptor modulator/kg body weight as determined by the attending physician. The patient is monitored for reduction or inhibition of snoring and associated symptoms.
as §2, with “ampakine.” for “AMPA receptor modulator.”, “ampakine” for “AMPA receptor modulator”, “ampakine/kg” for “AMPA receptor modulator/kg”
as §2, with “CX546. CX546” for “an AMPA receptor modulator. The AMPA receptor modulator”, “CX546/kg” for “AMPA receptor modulator/kg”
as §2, with “aniracetam. Aniracetam” for “an AMPA receptor modulator. The AMPA receptor modulator”, “aniracetam/kg” for “AMPA receptor modulator/kg”
as §2, with “benzothiadiazide. Benzothiadiazide” for “an AMPA receptor modulator. The AMPA receptor modulator”, “benzothiadiazide/kg” for “AMPA receptor modulator/kg”
The patient is administered a pharmaceutical formulation of cyclothiazide. Cyclothiazide is administered to the patient intravenously at a dosage of about 0.1 to 100 mg cyclothiazide/kg body weight as determined by the attending physician. […]

[4] = test system: obstructive sleep apnea; test: Treatment of a patient having obstructive sleep apnea; assay type: in vivo; conditions: about 0.1 to 100 mg/kg body weight
Text: A patient is diagnosed as having obstructive sleep apnea. This diagnosis is confirmed by the presence of obstructive sleep apnea symptoms, including daytime sleepiness, unintentional sleep episodes, unrefreshing sleep, fatigue, or insomnia; awakening with breath holding, gasping, or choking; reports by a bed partner of loud snoring, breathing interruptions, or both in the patient's sleep; sleep study monitoring that documents >5 episodes of hypopnea and apnea per hour. The patient is administered a pharmaceutical formulation of benzothiadiazide. Benzothiadiazide is administered to the patient orally or intravenously at a dosage of about 0.1 to 100 mg benzothiadiazide/kg body weight as determined by the attending physician. The patient is monitored for reduction or inhibition of obstructive sleep apnea and associated symptoms. […] Cyclothiazide is administered to the patient intravenously at a dosage of about 0.1 to 100 mg cyclothiazide/kg body weight as determined by the attending physician. The patient is monitored for reduction or inhibition of obstructive sleep apnea and associated symptoms. […] Aniracetam is administered to the patient intravenously at a dosage of about 0.1 to 100 mg aniracetam/kg body weight as determined by the attending physician. The patient is monitored for reduction or inhibition of obstructive sleep apnea and associated symptoms.

[5] = test system: XII motoneurons; test: Whole-cell voltage-clamp of XII motoneurons in the medullary slice; assay type: cell-based, rat; conditions: 90 μM for 15 minutes
Protocol: as §1
XII motoneurons were selected according to a hierarchy of criteria. Selection criteria for respiratory motoneurons are described by Funk et al. (1993) J Neurophysiol 70:1497-1515. […]
Respiratory motor output was recorded from cut ends of XII nerve roots rectified, filtered and integrated. […] The activity in individual XII motoneurons was measured via whole-cell voltage-clamp techniques.

[6] = short-duration (1 hour) application, 90 μM, FIG. 2
[7] = injection into XII motor nucleus (1 μL, 25 mM), 30 minutes post-injection, FIG. 7
[8] = local application to the IVth ventricle, FIG. 8A
[9] = micropipette injection into hypoglossal (XII) motor nucleus, 8 minutes after, FIG. 6

## O=C(c1ccc2c(c1)OCCO2)N1CCCCC1 [CX546]
[1]; 1-hour bath application, 90 μM
  effect on respiratory rate (frequency) in slice: increase in ∫XII nerve discharge and respiration rate that subsides over time with drug removal
[1]; 1-hour bath application, 90 μM, FIG. 1B
  effect on ∫XII nerve discharge: induces an increase in ∫XII nerve discharge and respiration rate that subsides over time with drug removal
[1]; 20 μM, FIG. 5A
  ∫XII nerve discharge amplitude: induces a persistent potentiation of ∫XII nerve discharge amplitude
[1]; [6]
  long-lasting potentiation of ∫XII nerve amplitude: but not CX546 causes long-lasting potentiation
[2]; intravenous injection into femoral vein, 130 μg/kg, FIG. 9A
  average increase of ∫GG activity compared to control: 15%
[2]; intravenous injection, 130 μg/kg, FIG. 9B
  respiratory rate: no long term changes in respiratory rate
[2]; intravenous injection, 130 μg/kg, no diminution of amplitude
  duration genioglossus muscle activity remained elevated: more than 2 hours
[3]
  snoring: reduces snoring

## COc1ccc(C(=O)N2CCCC2=O)cc1 [aniracetam]
[1]; 700 μM, FIG. 5B
  ∫XII nerve discharge amplitude: induces a persistent potentiation of ∫XII nerve discharge amplitude
[3]
  snoring: reduces snoring
[4]
  symptoms of obstructive sleep apnea: reduces the symptoms of obstructive sleep apnea

## NS(=O)(=O)c1cc2c(cc1Cl)NC(C1CC3C=CC1C3)NS2(=O)=O (centres unmarked) [cyclothiazide]
[1]; 1-hour bath application, 90 μM
  effect on respiratory rate (frequency) in slice: minor effects on respiratory rate (frequency)
[1]; 1-hour bath application, 90 μM, FIG. 1A
  potentiation of hypoglossal (∫XII) nerve discharge amplitude: 2 fold
[1]; 1 hour following a 1 hour application of 3, 9, 30, or 90 μM, FIG. 3
  dose-response of normalized ∫XII nerve amplitude: ∫XII nerve amplitude increases as a function of cyclothiazide concentration
[1]; after 1-hour bath application, 90 μM, drug removed
  persistence of potentiation of ∫XII nerve discharge amplitude: > 12 h
[1]; [6]
  long-lasting potentiation of ∫XII nerve amplitude: causes long-lasting potentiation of ∫XII nerve amplitude
[1]; short-duration (1 hour) application, 90 μM, group data 1-12 hours after, FIG. 2
  increase of ∫XII nerve output: 200-300%
[2]; [7]
  average increase of ∫GG activity relative to control: 300%
  peak increase of ∫GG activity relative to control: 600%
[2]; [8]
  average increase of ∫GG activity compared to control: 50%
  peak increase of ∫GG activity compared to control: 150%
[2]; local application to the IVth ventricle, FIG. 8B
  respiratory rate: without affecting respiratory rate
[2]; local application to the IVth ventricle, until the end of the experiment
  duration of elevation of ∫GG activity: ~90 min
[2]; [9]
  respiratory frequency: does not affect respiratory frequency
  ∫GG activity: induces an increase in ∫GG activity
[3]
  snoring: reduces snoring
[4]
  symptoms of obstructive sleep apnea: reduces the symptoms of obstructive sleep apnea
[5]; 1 hour post-treatment, FIG. 4A
  XII motoneuron drive currents: potentiates endogenously generated XII motoneuron drive currents
[5]; control vs 1 hour post-treatment, FIG. 4B
  XII motoneuron charge transfer and ∫XII nerve peak amplitude: induces XII motoneuron charge transfer and increase of ∫XII nerve amplitude
